Test: xn = mol fraction of the nth substance listed
Settings: 92.3 kPa

CCCC[NH3+].O=C[O-] + CCO
Settings | speed of sound, 293.15 K [m/s] | speed of sound, 298.15 K [m/s] | speed of sound, 303.15 K [m/s] | speed of sound, 308.15 K [m/s] | speed of sound, 313.15 K [m/s] | viscosity, 293.15 K [mPa·s] | viscosity, 298.15 K [mPa·s] | viscosity, 303.15 K [mPa·s] | viscosity, 308.15 K [mPa·s] | viscosity, 313.15 K [mPa·s]
x1 = 0.0484 | 1197.4 | 1180.8 | 1164.2 | 1147.9 | 1131.6 | 1.91 | 1.672 | 1.512 | 1.37 | 1.247
x1 = 0.1038 | 1232 | 1215.9 | 1199.9 | 1184 | 1168.2 | 2.85 | 2.5 | 2.26 | 2.04 | 1.845
x1 = 0.1507 | – | 1242.7 | 1227 | 1211.4 | 1196 | – | 3.44 | 3.07 | 2.76 | 2.49
x1 = 0.2004 | 1283.9 | – | 1253.1 | – | 1222.7 | 5.28 | – | 4.15 | – | 3.33
x1 = 0.2564 | 1310.4 | 1295.2 | – | – | 1250.5 | 7.29 | 6.4 | – | – | 4.54
x1 = 0.2938 | 1326.3 | 1311.4 | 1296.6 | 1281.9 | 1267.4 | 9 | 7.92 | 6.99 | 6.2 | 5.53
x1 = 0.355 | 1350.5 | 1336 | – | – | 1292.9 | 12.31 | 10.71 | – | – | 7.3
x1 = 0.3886 | – | 1348.5 | 1334.2 | 1320 | – | – | 12.67 | 11.04 | 9.68 | –
x1 = 0.4521 | 1384.5 | 1370.5 | – | – | 1328.9 | 19.7 | 16.96 | – | – | 11.16
x1 = 0.5005 | 1399.2 | 1385.4 | – | 1358.1 | 1344.6 | 24.9 | 21.3 | – | 15.84 | 13.79
x1 = 0.5487 | 1413.1 | 1399.5 | 1386 | 1372.7 | 1359.4 | 30.5 | 25.8 | 22 | 18.89 | 16.39
x1 = 0.5982 | 1426.3 | 1412.9 | – | 1386.5 | 1373.5 | 37.6 | 31.7 | – | 23.1 | 19.7
x1 = 0.6393 | 1436.7 | 1423.5 | 1410.4 | – | 1384.7 | 44.9 | 37.5 | 31.5 | – | 23
x1 = 0.6993 | 1450.9 | 1437.9 | 1425.1 | – | 1399.8 | 57.4 | 47.4 | 39.5 | – | 28.3
x1 = 0.749 | 1462.1 | 1449.3 | 1436.6 | 1424.1 | 1411.7 | 70.3 | 57.5 | 47.7 | 39.9 | 33.8
x1 = 0.7972 | – | 1459.5 | 1447 | 1434.7 | 1422.5 | – | 69.5 | 57.1 | 47.4 | 39.8
x1 = 0.8487 | 1482 | – | 1457.2 | 1445.1 | 1433.2 | 103.8 | – | 68.4 | 56.6 | 47.2
x1 = 0.8993 | 1491.4 | 1479.1 | 1467 | 1455 | 1443.2 | 126.4 | 101.1 | 81.9 | 67.2 | 55.7
x1 = 0.9444 | – | – | 1475.2 | 1463.4 | 1451.8 | – | – | 95.8 | 78.1 | 64.4
x1 = 1 | 1508.6 | 1496.5 | 1484.7 | 1473.1 | 1461.7 | 182.3 | 143.6 | 114.7 | 92.7 | 76.1

CCO + CCCC[NH3+].O=C[O-]
x2 = 0
Settings | speed of sound [m/s] | viscosity [mPa·s]
293.15 K | 1160.1 | 1.238
298.15 K | 1142.9 | 1.092
308.15 K | 1109 | 0.912
313.15 K | 1092.3 | 0.836
